Laboratory results published in patent publication US5622983A, “N-substituted cycloalkyl and polycycloalkyl α-substituted Trp-Phe- and phenethylamine derivatives” (Warner-Lambert Company, priority 1995, dated 1997).

Tests used:
[1] = Rat Elevated X-Maze Test; assay type: in vivo; details: 0.01 to 1.0 mg/kg s.c.
Method: The dose was equivalent to 0.1 mg/kg p.o. compound 20.

[2] = Withdrawal from long-term drug or alcohol treatment, mouse light/dark box test; assay type: in vivo
Method: The effect of the compounds of the instant invention is illustrated, for example, in the mouse "light/dark box" test in FIGS. 5-12.
In FIG. 5, five animals were given nicotine, 0.1 mg/kg i.p.b.d. for 14 days. After a 24-hour withdrawal period, compound (20) was given at 1.0 mg/kg i.p.b.d.
FIG. 6 illustrates the effect of long-term treatment and withdrawal from nicotine using compound (20A). Five mice were given nicotine at 0.1 mg/kg i.p.b.d. for 14 days. After a withdrawal period of 24 hours, compound (20A) was given at 10 mg/kg i.p.b.d.
FIG. 7 illustrates the effect of long-term treatment and withdrawal from diazepam with intervention with compound (20). Five mice were given diazepam, at 10 mg/kg i.p.b.d. for seven days. Withdrawal was for a 24-hour period; compound 20 was given at 1.0 mg/kg i.p.b.d.
FIG. 8 illustrates the effect of compound (20A) on the long-term treatment and withdrawal from diazepam. Five mice were given diazepam at 10 mg/kg i.p.b.d. for seven days. After a withdrawal period of 24 hours, compound (20A) was given at 10 mg/kg i.p.b.d.
FIG. 9 illustrates the effect compound (20A) on the long-term treatment and withdrawal from alcohol. Five mice were given alcohol in drinking water 8% w/v for 14 days. After a withdrawal period of 24 hours, compound (20) was given at 1.0 mg/kg i.p.b.d.
Five mice were given alcohol in drinking water, 8% w/v for 14 days. After a withdrawal period of 24 hours, compound (20A) was given at 10 mg/kg i.p.b.d.
FIG. 11 illustrates the effectiveness in the long-term treatment and withdrawal from cocaine. Five mice were given cocaine as 1.0 mg/kg i.p.b.d. for 14 days.
Five mice were given cocaine at 1.0 mg/kg i.p.b.d. for 14 days after a withdrawal period of 24 hours, compound (20a) was given at 1.0 mg/kg i.p.b.d.

[3] = Flexor response in stimulated spinalized decerebrated rat preparation
[4] = Antagonism of intra-accumbens amphetamine hyperactivity (antipsychotic activity); assay type: in vivo, rat; details: 10 mg/kg intraperitoneal; amphetamine 20 μg
Method: Male Sprague Dawley (CD) Bradford strain rats were used. The rats were housed in groups of five at a temperature of 21°±2° C. on a 12 hour light-dark cycle of lights-on between 07 hours 00 minutes and […]. Rats were fed CRM diet (Labsure) and allowed water ad libitum.
Rats were anesthetized with chloral hydrate (400 mg/kg SC) and placed in a Kopf stereotaxic frame. Chronically indwelling guide cannulae (constructedof stainless steel tubing 0.65 mm diameter held bilaterally in Parspex holders) were implanted using standard stereotaxic techniques to terminate 3.5 mm above the center of the nucleus accumbens (Ant. 9.4, Vert. 0.0, Lat. 1.6) or 5.0 mm above the central nucleus of the amygdala (Ant. 5.8, Vert. -1.8, Lat. ±4.5) (atlas of De Groot, 1959). The guides were kept patent during a 14-day recovery period using stainless steel stylers, 0.3 mm diameter, which extended 0.5 mmbeyond the guide tips.
Rats were manually restrained and the stylers removed. Intracerebral injection cannulae, 0.3 mm diameter, were inserted and drugs delivered in a volume of 0.5 μl over 5 seconds (a further 55 seconds was allowed for deposition) from Hamilton syringes attached via polythene tubing to the injection units. […]
The abilities of the compounds (20) and (20A) to inhibit the hyperactivity caused by the injection of amphetamine into the nucleus accumbens of the rat was measured. […]

[5] = Palatable Diet Feeding assay; assay type: in vivo, rat; details: dose producing 50% of the maximum effect possible (zero food intake)
Method: In the Palatable Diet Feeding assay, adult male Hooded Lister rats weighing between 200-400 g were housed individually and trained to eat a palatable diet. This diet consisted of Nestles sweetened condensed milk, powdered rat food and rat water which when blended together set to a firm consistency. […] The intake of palatable diet was measured by weighing the food container before and after the 30-minute access period (limits of accuracy 0.1 g). Care was taken to collect and correct for any spillage of the diet. Rats had free access to pellet food and water except during the 30-minute test period.
After the training period, dose-response curves were constructed for CCK8 and several representative compounds of the present invention (n=8-10 rats per dose level).

[6] = Light/dark exploration test (anxiolytic activity); assay type: in vivo, mouse
Method: In FIG. 2 the number of mice was 5 and the pretreatment time was 40 minutes. The compound was given p.o. in 0.1, 1, and 10 mg/kg doses.
The apparatus was an open-topped box, 45 cm long, 27 cm wide, and 27 cm high, divided into a small (2/5) area and a large (3/5) area by a partition that extended 20 cm above the walls. There was a 7.5×7.5 cm opening in the partition at floor level. The small compartment was painted black and the large compartment white. The floor of each compartment was marked into 9 cm squares. The white compartment was illuminated by a 100-watt tungsten bulb 17 cm above the box and the black compartment by a similarly placed 60-watt red bulb. The laboratory was illuminated with red light.
All tests were performed between 13 hundred hours, 0 minutes and 18 hundred hours, 0 minutes. Each mouse was tested by placing it in the center of the white area and allowing it to explore the novel environment for five minutes. Its behavior was recorded on videotape and the behavioral analysis was performed subsequently from the recording. Five parameters were measured: the latency to entry into the dark compartment, the time spent in each area, the number of transitions between compartments, the number of lines crossed in each compartment, and the number of rears in each compartment.
Drugs were dissolved in water or saline and administered either subcutaneously, intraperitoneally, or by mouth (PO) via a stomach needle.

[7] = 1 mg/kg SC, five-minute measurement periods

SMILES: CC(Cc1c[nH]c2ccccc12)(NC(=O)OC1C2CC3CC(C2)CC1C3)C(=O)NCC(NC(=O)CCC(=O)O)c1ccccc1 (stereo not drawn) [Example 20, [R-(R*,R*)-4-[[2-[[3-(1H-indol-3-yl)-2-methyl-1-oxo-2-[[(tricyclo[3.3.1.1^3,7]dec-2-yloxy)carbonyl]amino]propyl]amino]-1-phenylethyl]amino]-4-oxobutanoic acid]
- anxiolytic effect, time spent in the open arm end section (FIG. 14) [1]: anxiolytic effects
- time spent in the light section after withdrawal from alcohol (FIG. 9) ([2]; alcohol 8% w/v in drinking water 14 days, 24-hour withdrawal, compound 1.0 mg/kg i.p.b.d.): demonstrates the effectiveness of the compound
- time in the light section after withdrawal from cocaine (FIG. 11) ([2]; cocaine 1.0 mg/kg i.p.b.d. 14 days): increased time in the light section
- time spent in the light section after withdrawal from diazepam (FIG. 7) ([2]; diazepam 10 mg/kg i.p.b.d. seven days, 24-hour withdrawal, compound 1.0 mg/kg i.p.b.d.): increased time spent in the light section
- time spent in the light area after withdrawal from nicotine (FIG. 5) ([2]; nicotine 0.1 mg/kg i.p.b.d. 14 days, 24-hour withdrawal, compound 1.0 mg/kg i.p.b.d.): increased time spent in the light area
- flexor response (FIG. 16) ([3]; compound alone, similar to morphine): depresses the flexor response
- duration of the potentiated effect ([3]; given with morphine): 3 h
- effect on flexor response when given with morphine (FIG. 16) ([3]; given with morphine): greatly potentiates the effect
- hyperactivity caused by intra-accumbens injection of amphetamine [4]: reduced the hyperactivity
- Inhibition of Feeding on Rat Palatable Diet Assay I.P. MPE50 [5]: 17.4 mg/kg
- time spent in the light area of the test box ([6]; 1 mg/kg PO): significantly (p <0.01) increased the time spent in the light area
- crossings into the dark area [6, 7]: 24
- crossings into the light area [6, 7]: 85
- anxiolytic activity, orally administered (FIG. 2) ([6]; p.o. 0.1, 1, and 10 mg/kg, pretreatment 40 minutes): effectiveness
- anxiolytic activity by the subcutaneous route ([6]; subcutaneous): active
